What was measured:
[1] = tested on: STAT5 Y694 phosphorylation; test: HTRF experiment: STAT5 Y694 phosphorylation in Hela cells stimulated with human interferon beta; format: cell-based; settings: 2 hours pretreatment, 10 nM human interferon beta 30 minutes
Method: Example of Effect 3: HTRF Experiment
Human Interferon 3 (IFN-0) (GenScript, Cat #P01574), STAT5 Y694 phosphorylation detection kit (STAT5 phospho-Y694 kit) (Cisbio; Cat #64AT5PEG).
Hela cells (ATCC American Standard Culture Center, CCL-2) were cultured in a 96-well plate at a density of 3×10^4 cells/well with DMEM medium containing 5% fetal bovine serum and maintained at 37° C. in a humidified incubator with 5% carbon dioxide overnight. On the second day, the original DMEM medium in the 96-well plate was sucked dry, and an equal volume of medium containing different concentrations of compounds (the mother liquor of the compound prepared by dimethyl sulfoxide was diluted in the medium at the required concentration) was added for pretreatment for 2 hours, and then it was placed in an incubator at 37° C. Then human interferon beta with a final concentration of 10 nM was added to stimulate, and it was gently shaken to mix well and then placed in an incubator at 37° C. for 30 minutes.
The medium was removed, an appropriate volume of PBS was added to wash, and then it was sucked dry. Then 40 microliters of 1× Lysis Buffer was added to each well and it was stood for 30 minutes at room temperature (1 ml 1× lysate preparation: 740 μl ddH2O was added to 250 μl 4× lysate and 10 μl Blocking reagent and it was mixed thoroughly). After 30 minutes, the cells were repeatedly blown until the lysis solution was not viscous (avoiding blowing out bubbles) to achieve sufficient lysis.
After overnight incubation, the signals of 665 nm and 620 nm were detected in a multifunctional microplate reader. The calculation formula for the detection of STAT5 Y694 phosphorylation is: Ratio=[(signal 665 nm)/(signal 620 nm)]×10^4. Treatment with dimethyl sulfoxide alone was the baseline control (Ratiobase), and the human interferon β stimulation without addition of the compound was the STAT5 Y694 full phosphorylation activation control (Ratiostimulation), the inhibition rate of STAT5 Y694 phosphorylation of different samples was normalized: Inhibition rate=[1−(RatioExperiment−Ratiobase)/(Ratiostimulation−Ratiobase)]*100.

[2] = tested on: STAT5 Y694 phosphorylation; test: Protein electrophoresis and blotting of STAT5 Y694 phosphorylation in Jurkat cells stimulated with human interferon beta; format: cell-based; settings: for Inhibiting Ratio (0% for vehicle control): 1 hour pretreatment, 20 ng/ml human interferon beta 30 minutes, pSTAT5/GAPDH; for Example of Effect 1: Inhibiting Ability (Protein Electrophoresis and Blotting): observed pSTAT5 bands at 10 μM and 100 μM
Method: Example of Effect 1: Protein Electrophoresis and Blotting Experiment
Standard protein electrophoresis and chemiluminescence imaging equipment (Bio-Rad);
Protein lysate RIPA (Lianke Biological; Cat #WB020); Western blot transfer membrane PVDF (Millipore; Cat #IPVH00010);
Jurkat cells (ATCC American Standard Culture Center, TIB152) were cultured in a 6-well plate at a density of 1×10^6/ml with RPMI medium […] 10% fetal bovine serum in a humidified incubator at 37° C. and maintained at 5% carbon dioxide overnight. On the second day, the cells were pretreated with compounds of different concentrations (the mother liquor of the compound prepared by dimethyl sulfoxide was diluted in the medium at the required concentration) for 1 hour, and then stimulated with 20 ng/ml human interferon beta for 30 minutes, it was mixed thoroughly and then placed in an incubator at 37° C. environment. […] Then an appropriate volume of RIPA Lysis Solution was added, it was mixed well, and placed on ice for 1 hour, inverted and mixed several times in the middle. Then, the cell lysate was centrifuged at 12000 rpm at 4° C. for 10 minutes, and the supernatant was transferred to another test tube, aliquoted and stored at −20° C. until use.
An equal volume of protein lysate was mixed with an appropriate 6-fold protein loading buffer (Biyun Tian Biochemical Company P0015F), and the mixture was heated at 95 degrees for 10 minutes, after full denaturation, the protein sample was added to the polyacrylamide gel (self-made, raw material purchased from Soleibao Biotechnology Company A1010, 30% acrylamide solution), and electrophoresis was performed at the appropriate voltage for 1 hour, until the strips were fully separated. It was transferred to a polyvinylidene fluoride membrane according to standard procedures, and blocked with 5% skim milk for 1 hour, and the specified antibody was added, and it was diluted 1:1000 in 3% bovine serum albumin, and it was incubated overnight for four degrees. It was thoroughly rinsed, incubated with the secondary antibody, exposed to chemiluminescence and signals were collected. ImageJ software was used to quantify the obtained chemiluminescence results. The same area was selected, the gray values of STAT5 phosphorylation band and GAPDH band of each sample were analyzed, and the ratio of pSTAT5/GAPDH level was calculated. The value of the solvent-treated sample was 100%, and the remaining samples were converted into relative data in the same proportion, that is, the percentage corresponding to the solvent sample. […] The solvent control group was the same as the test compound group except that DMSO was used instead of the DMSO solution of the test compound. N1 (Pimozide) was a specific positive control.

O=C(Cc1ccc(C(F)(F)F)cc1)N1CCC(n2c(=O)[nH]c3cccc(Cl)c32)CC1 [GEN1-281]
Example of Effect 3: Inhibiting Ratio@10 μM (HTRF Experiment) [1]: 50.87%

O=C(Cc1ccc2ncccc2c1)N1CCC(n2c(=O)[nH]c3cc(Cl)ccc32)CC1 [GEN1-294]
Example of Effect 3: Inhibiting Ratio@10 μM (HTRF Experiment) [1]: 1.85%

O=C(Cc1ccc2[nH]ccc2c1)N1CCC(n2c(=O)[nH]c3ccccc32)CC1 [GEN1-077, 3-[1-[2-(1H-indol-5-yl)acetyl]-4-piperidinyl]-1H-benzimidazol-2-one]
Example of Effect 3: Inhibiting Ratio@10 μM (HTRF Experiment) [1]: 34.25%

O=C(Cc1ccc(C(F)(F)F)cc1)N1CCC(N2C(=O)NCc3cccc(C(F)(F)F)c32)CC1 [GEN1-265, 8-(trifluoromethyl)-1-(1-(2-(4-(trifluoromethyl)phenyl)acetyl)piperidin-4-yl)-3,4-dihydroquinazolin-2(1H)-one]
Example of Effect 3: Inhibiting Ratio@10 μM (HTRF Experiment) [1]: 16.47%

O=C1Nc2ccccc2C2(CCN(C(=O)Cc3ccc(C(F)(F)F)cc3)CC2)O1 [GEN1-178, 1′-(2-(4-(trifluoromethyl)phenyl)acetyl)spiro[benzo[d][1,3]oxazine-4,4′-piperidine]-2(1H)-one]
Example of Effect 3: Inhibiting Ratio@10 μM (HTRF Experiment) [1]: 8.67%

O=c1[nH]c2ccccc2n1C1CCN(CCCC(c2ccc(F)cc2)c2ccc(F)cc2)CC1 [Example N1, Pimozide, reference compound]
Inhibiting Ratio (0% for vehicle control) ([2]; 1 μM): −0.6% | Inhibiting Ratio (0% for vehicle control) ([2]; 10 μM): 5.9% | Inhibiting Ratio (0% for vehicle control) ([2]; 100 μM): 95.4% | Example of Effect 1: Inhibiting Ability (Protein Electrophoresis and Blotting) [2]: +

O=C(Cc1ccncc1)N1CCC(n2c(=O)[nH]c3ccccc32)CC1 [Example X3, 1-(1-(2-(pyridin-4-yl)acetyl)piperidin-4-yl)-1H-benzo[d]imidazole-2(3H)-one]
Inhibiting Ratio (0% for vehicle control) ([2]; 1 μM): 17.4% | Inhibiting Ratio (0% for vehicle control) ([2]; 10 μM): 4.7% | Inhibiting Ratio (0% for vehicle control) ([2]; 100 μM): 87.5% | Example of Effect 1: Inhibiting Ability (Protein Electrophoresis and Blotting) [2]: −

O=C1CN(C2CCN(C(=O)Cc3ccc(C(F)(F)F)cc3)CC2)c2c(cccc2[N+](=O)[O-])N1 [GEN1-101, 5-nitro-4-(1-(2-(4-(trifluoromethyl)phenyl)acetyl)piperidin-4-yl)-3,4-dihydroquinoxaline-2(1H)-one]
Example of Effect 1: Inhibiting Ability (Protein Electrophoresis and Blotting) [2]: +

O=C(Cc1ccc(C(F)(F)F)cc1)N1CCC(n2c(=O)[nH]c3ccc(O)cc32)CC1 [GEN1-012, 6-hydroxy-1-(1-(2-(4-(trifluoromethyl)phenyl)acetyl)piperidin-4-yl)-1H-benzo[d]imidazole-2 (3H)-one]
Example of Effect 1: Inhibiting Ability (Protein Electrophoresis and Blotting) [2]: +

O=C(Cc1ccncc1)N1CCC(n2c(=O)oc3ccccc32)CC1 [Example P3, 3-(1-(2-(pyridin-4-yl)acetyl)piperidin-4-yl)benzo[d]oxazole-2(3H)-one]
Example of Effect 1: Inhibiting Ability (Protein Electrophoresis and Blotting) [2]: −

O=C(Cc1ccc(C(F)(F)F)cn1)N1CCC(n2c(=O)[nH]c3ccccc32)CC1 [GEN1-028, 1-(1-(2-(5-(trifluoromethyl)pyridin-2-yl)acetyl)piperidin-4-yl)-1H-benzo[d]imidazole-2(3H)-one]
Inhibiting Ratio (0% for vehicle control) ([2]; 1 μM): 14.5% | Inhibiting Ratio (0% for vehicle control) ([2]; 10 μM): 32.6% | Inhibiting Ratio (0% for vehicle control) ([2]; 100 μM): 93.3% | Example of Effect 1: Inhibiting Ability (Protein Electrophoresis and Blotting) [2]: −

NS(=O)(=O)c1cccc2[nH]c(=O)n(C3CCN(C(=O)Cc4ccc(C(F)(F)F)cc4)CC3)c12 [GEN1-094, 2-oxo-3-(1-(2-(4-(trifluoromethyl)phenyl)acetyl)piperidin-4-yl)-2,3-dihydro-1H-benzo[d]imidazol-4-sulfonamide]
Example of Effect 1: Inhibiting Ability (Protein Electrophoresis and Blotting) [2]: +

NC(=O)c1cccc2[nH]c(=O)n(C3CCN(C(=O)Cc4ccc(C(F)(F)F)cc4)CC3)c12 [GEN1-095, 2-oxo-3-(1-(2-(4-(trifluoromethyl)phenyl)acetyl)piperidin-4-yl)-2,3-dihydro-1H-benzo[d]imidazol-4-carboxamide]
Example of Effect 1: Inhibiting Ability (Protein Electrophoresis and Blotting) [2]: −

O=C(Cc1ccc(C(F)(F)F)cc1)N1CCC(N2C/C(=N\O)Nc3ccccc32)CC1 [GEN1-150, (E)-1-(4-(3-(hydroxyimino)-3,4-dihydroquinoxaline-1(2H)-yl)piperidin-1-yl)-2-(4-(trifluoromethyl)phenyl)ethane-1-one]
Example of Effect 1: Inhibiting Ability (Protein Electrophoresis and Blotting) [2]: −

O=C(Cc1ccc(C(F)(F)F)cc1)N[C@H]1C[C@@H](n2c(=O)[nH]c3ccccc32)C1 [GEN1-024, N-((1s,3s)-3-(2-oxo-2,3-dihydro-1H-benzo[d]imidazol-1-yl)cyclobutyl)-2-(4-(trifluoromethyl)phenyl)acetamide]
Example of Effect 1: Inhibiting Ability (Protein Electrophoresis and Blotting) [2]: −

O=C(Cc1ccccc1C(F)(F)F)N1CCC(n2c(=O)[nH]c3ccccc32)CC1 [GEN1-030, 1-(1-(2-(2-(trifluoromethyl)phenyl)acetyl)piperidin-4-yl)-1H-benzo[d]imidazole-2(3H)-one]
Inhibiting Ratio (0% for vehicle control) ([2]; 1 μM): 15.7% | Inhibiting Ratio (0% for vehicle control) ([2]; 10 μM): 19.4% | Inhibiting Ratio (0% for vehicle control) ([2]; 100 μM): 94.0% | Example of Effect 1: Inhibiting Ability (Protein Electrophoresis and Blotting) [2]: −

CC(C)(C)c1ccc2[nH]c(=O)n(C3CCN(C(=O)Cc4ccc(C(F)(F)F)cc4)CC3)c2c1 [GEN1-088, 6-(tert-butyl)-1-(1-(2-(4-(trifluoromethyl)phenyl)acetyl)piperidin-4-yl)-1H-benzo[d]imidazol-2(3H)-one]
Example of Effect 1: Inhibiting Ability (Protein Electrophoresis and Blotting) [2]: +

O=C(Cc1ccc(C(F)(F)F)cc1)N[C@H]1CC[C@H](n2c(=O)[nH]c3ccccc32)CC1 [GEN1-022, Trans-N-(4-(2-oxo-2,3-dihydro-1H-benzo[d]imidazol-1-yl)cyclohexyl)-2-(4-(trifluoromethyl)phenyl)acetamide]
Inhibiting Ratio (0% for vehicle control) ([2]; 1 μM): 15.8% | Inhibiting Ratio (0% for vehicle control) ([2]; 10 μM): 29.5% | Inhibiting Ratio (0% for vehicle control) ([2]; 100 μM): 81.2% | Example of Effect 1: Inhibiting Ability (Protein Electrophoresis and Blotting) [2]: −

O=C(Cc1ccc(N2CCOCC2)cc1)N1CCC(n2c(=O)[nH]c3ccccc32)CC1 [GEN1-034, 1-(1-(2-(4-morpholinophenyl)acetyl)piperidin-4-yl)-1H-benzo[d]imidazole-2(3H)-one]
Example of Effect 1: Inhibiting Ability (Protein Electrophoresis and Blotting) [2]: −

CC(=O)N1CCN(C2CCN(C(=O)Cc3ccc(C(F)(F)F)cc3)CC2)c2ccccc21 [GEN1-243, 1-(4-(4-acetyl-3,4-dihydroquinoxaline-1(2H)-yl)piperidin-1-yl)-2-(4-(trifluoromethyl)phenyl)ethenone]
Example of Effect 1: Inhibiting Ability (Protein Electrophoresis and Blotting) [2]: +

O=C(Cc1ccc(C(F)(F)F)cc1)N1CCC(n2c(=O)oc3ccccc32)CC1 [Example P8, 3-(1-(2-(4-(trifluoromethyl)phenyl)acetyl)piperidin-4-yl)benzo[d]oxazole-2(3H)-one]
Example of Effect 1: Inhibiting Ability (Protein Electrophoresis and Blotting) [2]: −

O=C(Cc1ccc(C(F)(F)F)cc1)N1CCC(N2c3ccccc3NS2(=O)=O)CC1 [GEN1-054, 1-(4-(2,2-dioxybenzo[c] [1,2,5]thiadiazole-1(3H)-yl)piperidin-1-yl)-2-(4-(trifluoromethyl)phenyl)ethenone]
Example of Effect 1: Inhibiting Ability (Protein Electrophoresis and Blotting) [2]: −

Source: patent publication US20230099441A1, “HETEROCYCLIC COMPOUND, APPLICATION THEREOF, AND COMPOSITION CONTAINING SAME” (GenEros Biopharma Ltd., priority 2019, published 2023)
